Measured values from patent publication US10130633B2, “Compounds” (BAYER PHARMA AKTIENGESELLSCHAFT, priority 2013, dated 2018).

Assays:
[1] = test system: HCT116 FOP control reporter cell line; test: HCT116 FOPFlash control reporter assay (FOP control vector, non-functional TCF elements); type: cell-based; details: Homo sapiens, HCT-116, 36 h, HCT116 FOP control reporter cells, 36 hours incubation, luciferase expression
Text: In a parallel approach, HCT116 cells were cotransfected with the FOP control vector and pcDNA3. The FOP vector is identical to the TOP construct, but it contains instead of functional TCF elements a randomized, non-functional sequence. For this transfection a stable transfected cell line was generated as well.

[2] = test system: constitutive active colorectal cancer cell (CRC) Wnt pathway; test: HCT116 TOPFlash cellular reporter assay (Super TopFlash luciferase), constitutive active Wnt pathway; type: cell-based; details: Homo sapiens, HCT-116, 36 h, HCT116 TOP reporter cells, 36 hours incubation, luciferase expression
Experimental: In order to discover and characterize small molecules which inhibit the constitutive active colorectal cancer cell (CRC) Wnt pathway, a cellular reporter assay was employed. […] Stable transfectants were generated by cotransfection with pcDNA3 and selection of stable transfected cells with 1 mg/ml G418.

SMILES	IC50 [1] [nM]	IC50 [2] [nM]
COC(=O)c1ccc(C(=O)Nc2nnc(-c3ccccc3)s2)cc1NC(=O)CN1CCOCC1 [Example 106, methyl 2-[(morpholin-4-ylacetyl)amino]-4-[(5-phenyl-1,3,4-thiadiazol-2-yl)carbamoyl]benzoate]	≥ 50000	285
COc1ccc(NC(=O)c2cnc(-c3ccccc3)s2)cc1NC(=O)C(C)N1CCOCC1 (stereo not shown) [Example 107, N-(4-methoxy-3-{[2-(morpholin-4-yl)propanoyl]amino}phenyl)-2-phenyl-1,3-thiazole-5-carboxamide]	≥ 50000	209
O=C(Nc1ccc(OC(F)(F)F)c(NC(=O)C2(N3CCOCC3)CC2)c1)c1cnc(-c2ccccc2)s1 [Example 108, N-[3-({[1-(morpholin-4-yl)cyclopropyl]carbonyl}amino)-4-(trifluoromethoxy)phenyl]-2-phenyl-1,3-thiazole-5-carboxamide]	≥ 50000	463
CC(C(=O)Nc1cc(C(=O)Nc2ccc(-c3ccc(O)cc3F)nc2)ccc1OC(F)(F)F)N1CCOCC1 (stereo not shown) [Example 109, N-[6-(2-fluoro-4-hydroxyphenyl)pyridin-3-yl]-3-{[2-(morpholin-4-yl)propanoyl]amino}-4-(trifluoromethoxy)benzamide]	29900	208
CC(C(=O)Nc1cc(C(=O)Nc2ccc(-c3ccc(O)c(F)c3)nc2)ccc1OC(F)(F)F)N1CCOCC1 (stereo not shown) [Example 110, N-[6-(3-fluoro-4-hydroxyphenyl)pyridin-3-yl]-3-{[2-(morpholin-4-yl)propanoyl]amino}-4-(trifluoromethoxy)benzamide]	42000	450
CC(C(=O)Nc1cc(C(=O)Nc2ccc(-c3ccc(C(F)F)cc3)nc2)ccc1OC(F)(F)F)N1CCOCC1 (stereo not shown) [Example 112, N-{6-[4-(difluoromethyl)phenyl]pyridin-3-yl}-3-{[2-(morpholin-4-yl)propanoyl]amino}-4-(trifluoromethoxy)benzamide]	≥ 50000	270
CC(C(=O)Nc1cc(C(=O)Nc2ccc(-c3ccc(N(C)C)cc3)nc2)ccc1OC(F)(F)F)N1CCOCC1 (stereo not shown) [Example 114, N-{6-[4-(dimethylamino)phenyl]pyridin-3-yl}-3-{[2-(morpholin-4-yl)propanoyl]amino}-4-(trifluoromethoxy)benzamide]	≥ 50000	46
O=C(CN1CCOCC1)Nc1cc(NC(=O)c2noc(-c3ccccc3)n2)ccc1OC(F)(F)F [Example 121, N-{3-[(morpholin-4-ylacetyl)amino]-4-(trifluoromethoxy)phenyl}-5-phenyl-1,2,4-oxadiazole-3-carboxamide]	≥ 50000	825
O=C(CN1CCOCC1)Nc1cc(C(=O)Nc2cnc(-c3ccccc3)s2)ccc1OC(F)(F)F [Example 122, 3-[(morpholin-4-ylacetyl)amino]-N-(2-phenyl-1,3-thiazol-5-yl)-4-(trifluoromethoxy)benzamide]	≥ 50000	202
Cn1nc(C(=O)Nc2ccc(OC(F)(F)F)c(NC(=O)CN3CCOCC3)c2)cc1-c1ccccc1 [Example 123, 1-methyl-N-{3-[(morpholin-4-ylacetyl)amino]-4-(trifluoromethoxy)phenyl}-5-phenyl-1H-pyrazole-3-carboxamide]	≥ 50000	560
O=C(CN1CCOCC1)Nc1cc(C(=O)Nc2nc(-c3ccccc3)no2)ccc1OC(F)(F)F [Example 125, 3-[(morpholin-4-ylacetyl)amino]-N-(3-phenyl-1,2,4-oxadiazol-5-yl)-4-(trifluoromethoxy)benzamide]	≥ 50000	1700
O=C(CN1CCOCC1)Nc1cc(C(=O)Nc2nnc(-c3ccccc3F)s2)ccc1OC(F)(F)F [Example 127, N-[5-(2-fluorophenyl)-1,3,4-thiadiazol-2-yl]-3-[(morpholin-4-ylacetyl)amino]-4-(trifluoromethoxy)benzamide]	≥ 50000	885
CC(C(=O)Nc1cc(C(=O)Nc2nnc(-c3ccccc3)s2)ccc1C(F)(F)F)N1CCOCC1 (stereo not shown) [Example 128, 3-{[2-(morpholin-4-yl)propanoyl]amino}-N-(5-phenyl-1,3,4-thiadiazol-2-yl)-4-(trifluoromethyl)benzamide]	≥ 50000	710
CC(C(=O)Nc1cc(C(=O)Nc2nnc(-c3ccccc3)s2)ccc1C(F)(F)F)N1CCN(C)CC1 (stereo not shown) [Example 129, 3-{[2-(4-methylpiperazin-1-yl)propanoyl]amino}-N-(5-phenyl-1,3,4-thiadiazol-2-yl)-4-(trifluoromethyl)benzamide]	≥ 50000	900
COc1ccc(NC(=O)c2nnc(-c3ccccc3)s2)cc1NC(=O)CN1CCOCC1 [Example 130, N-{4-methoxy-3-[(morpholin-4-ylacetyl)amino]phenyl}-5-phenyl-1,3,4-thiadiazole-2-carboxamide]	≥ 50000	318
CN1CCN(C2(C(=O)Nc3cc(C(=O)Nc4ccc(-c5ccccc5F)nc4)ccc3OC3CC3)CC2)CC1 [Example 135, 4-(cyclopropyloxy)-N-[6-(2-fluorophenyl)pyridin-3-yl]-3-({[1-(4-methylpiperazin-1-yl)cyclopropyl]carbonyl}amino)benzamide]	≥ 50000	84.8
CC1CN(CC(=O)Nc2cc(C(=O)Nc3ccc(-c4ccccc4F)nc3)ccc2OC(F)(F)F)CCN1C (stereo not shown) [Example 137, 3-{[(3,4-dimethylpiperazin-1-yl)acetyl]amino}-N-[6-(2-fluorophenyl)pyridin-3-yl]-4-(trifluoromethoxy)benzamide]	20000	272
CSc1ccc(C(=O)Nc2ccc(-c3ccccc3F)nc2)cc1NC(=O)CN1CCOCC1 [Example 138, N-[6-(2-fluorophenyl)pyridin-3-yl]-4-(methylsulfanyl)-3-[(morpholin-4-ylacetyl)amino]benzamide]	≥ 50000	150
CS(=O)(=O)c1ccc(C(=O)Nc2ccc(-c3ccccc3F)nc2)cc1NC(=O)CN1CCOCC1 [Example 139, N-[6-(2-fluorophenyl)pyridin-3-yl]-4-(methylsulfonyl)-3-[(morpholin-4-ylacetyl)amino]benzamide]	25000	500
CN(C)C1(C(=O)Nc2cc(C(=O)Nc3ccc(-c4ccccc4F)nc3)ccc2OC2CC2)CC1 [Example 140, 4-(cyclopropyloxy)-3-({[1-(dimethylamino)cyclopropyl]carbonyl}amino)-N-[6-(2-fluorophenyl)pyridin-3-yl]benzamide]	10000	293
O=C(Cn1cccn1)Nc1cc(C(=O)Nc2ccc(-c3ccccc3F)nc2)ccc1OC1CC1 [Example 141, 4-(cyclopropyloxy)-N-[6-(2-fluorophenyl)pyridin-3-yl]-3-[(1H-pyrazol-1-ylacetyl)amino]benzamide]	≥ 50000	680
CC(C(=O)Nc1cc(C(=O)Nc2ccc(-c3ccccc3F)nc2)ccc1C(C)(C)C)N1CCOCC1 (stereo not shown) [Example 142, 4-tert-butyl-N-[6-(2-fluorophenyl)pyridin-3-yl]-3-{[2-(morpholin-4-yl)propanoyl]amino}benzamide]	7150	118
CC(C(=O)Nc1cc(C(=O)Nc2ncc(-c3ccccc3)s2)ccc1C(C)(C)C)N1CCOCC1 (stereo not shown) [Example 143, 4-tert-butyl-3-{[2-(morpholin-4-yl)propanoyl]amino}-N-(5-phenyl-1,3-thiazol-2-yl)benzamide]	≥ 50000	204
Cc1ccccc1-c1nnc(NC(=O)c2ccc(OC(F)(F)F)c(NC(=O)CN3CCN(C)CC3)c2)s1 [Example 144, N-[5-(2-methylphenyl)-1,3,4-thiadiazol-2-yl]-3-{[(4-methylpiperazin-1-yl)acetyl]amino}-4-(trifluoromethoxy)benzamide]	≥ 50000	195
Cc1cccc(-c2nnc(NC(=O)c3ccc(OC(F)(F)F)c(NC(=O)CN4CCN(C)CC4)c3)s2)c1 [Example 145, N-[5-(3-methylphenyl)-1,3,4-thiadiazol-2-yl]-3-{[(4-methylpiperazin-1-yl)acetyl]amino}-4-(trifluoromethoxy)benzamide]	≥ 50000	152
COc1cccc(-c2nnc(NC(=O)c3ccc(OC(F)(F)F)c(NC(=O)CN4CCN(C)CC4)c3)s2)c1 [Example 146, N-[5-(3-methoxyphenyl)-1,3,4-thiadiazol-2-yl]-3-{[(4-methylpiperazin-1-yl)acetyl]amino}-4-(trifluoromethoxy)benzamide]	≥ 50000	365
CN1CCN(CC(=O)Nc2cc(C(=O)Nc3nnc(-c4ccc(Cl)cc4)s3)ccc2OC(F)(F)F)CC1 [Example 147, N-[5-(4-chlorophenyl)-1,3,4-thiadiazol-2-yl]-3-{[(4-methylpiperazin-1-yl)acetyl]amino}-4-(trifluoromethoxy)benzamide]	≥ 50000	2200
CN1CCN(CC(=O)Nc2cc(C(=O)Nc3nnc(-c4ccccc4Cl)s3)ccc2OC(F)(F)F)CC1 [Example 148, N-[5-(2-chlorophenyl)-1,3,4-thiadiazol-2-yl]-3-{[(4-methylpiperazin-1-yl)acetyl]amino}-4-(trifluoromethoxy)benzamide]	36500	205
CN1CCN(CC(=O)Nc2cc(C(=O)Nc3nnc(-c4ccc(F)cc4)s3)ccc2OC(F)(F)F)CC1 [Example 149, N-[5-(4-fluorophenyl)-1,3,4-thiadiazol-2-yl]-3-{[(4-methylpiperazin-1-yl)acetyl]amino}-4-(trifluoromethoxy)benzamide]	47500	704
